Values of other authors in US20240083845A1 (priority 2020, published 2024).

Experiments:
[1] = tested on: live virus; settings: cited from earlier work
[2] = tested on: ten further coronavirus strains; settings: read-out: Ki values against ten further coronavirus strains; cited from earlier work

Question: For PF-00835231, which “activity in cell-based live virus assays” value [1] is on record?
Answer: Its value is ~1 µM.

Question: And the Ki [2]?
Answer: Its Ki is 0.03 to 4 nM.
